From patent EP4480960A1, “A R[…] ALPHA-1 ANTITRYPSIN GLYCOPROTEIN” (AATEC Medical GmbH, priority 2023, dated 2024)
Where a name gives a salt, the structure may show the parent alone.

Tests used:
[1] = biological target: recombinant human TMPRSS2 enzyme (CusaBio #YP023924HU) (human) (UniProt O15393); experiment: cell-based or functional assay
[2] = biological target: T1, human neutrophil elastase (Homo sapiens, UniProt P08246); experiment: Neutrophil Elastase activity assay (fluorogenic MEOSUC-Ala-Ala-Pro-Val-AMC substrate); type: biochemical; set-up: key to Neutrophil Elastase IC50 / Neutrophil Elastase IC90: - = inactive
T1 construct: purchased Merck Millipore 324681
T1 sequence (P08246 30-247 limits assumed): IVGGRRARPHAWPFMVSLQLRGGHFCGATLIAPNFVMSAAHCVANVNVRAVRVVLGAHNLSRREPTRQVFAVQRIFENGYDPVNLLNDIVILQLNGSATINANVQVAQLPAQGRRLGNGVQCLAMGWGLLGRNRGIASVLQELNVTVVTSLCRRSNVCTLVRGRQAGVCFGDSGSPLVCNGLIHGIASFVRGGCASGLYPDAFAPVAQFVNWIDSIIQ

[3] = 15 min preincubation at 37 °C, read after 5 minutes

recombinant human TMPRSS2 enzyme (CusaBio #YP023924HU) (human), sequence (O15393 106-492 limits assumed): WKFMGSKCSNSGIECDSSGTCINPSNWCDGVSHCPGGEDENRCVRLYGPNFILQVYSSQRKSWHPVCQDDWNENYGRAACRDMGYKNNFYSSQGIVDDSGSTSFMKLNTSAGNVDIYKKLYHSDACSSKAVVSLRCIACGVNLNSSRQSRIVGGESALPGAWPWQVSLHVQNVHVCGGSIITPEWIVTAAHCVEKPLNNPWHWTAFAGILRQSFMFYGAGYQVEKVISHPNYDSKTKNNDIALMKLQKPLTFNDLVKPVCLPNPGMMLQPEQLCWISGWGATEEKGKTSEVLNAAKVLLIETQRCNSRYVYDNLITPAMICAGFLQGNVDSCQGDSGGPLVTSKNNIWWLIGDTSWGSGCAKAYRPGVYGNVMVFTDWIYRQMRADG

| Compound | TMPRSS2 IC50 (fluorogenic substrate enzyme activity assay) [1] [nM] | Neutrophil Elastase IC50 [2, 3] | Neutrophil Elastase IC90 [2, 3] | inhibition of neutrophil elastase activity ([2]; result in words) |
| --- | --- | --- | --- | --- |
| Prolastin (Grifols), human plasma-derived A1AT formulation (from UniProt P01009 25-418) | 79 |  |  |  |
| NIBSC Standard Alpha-1-Antitrypsin, plasma derived (1st International standard) (#05/162 NIBSC) (from UniProt P01009 25-418) | 51.8 |  |  |  |
| CN(C)C(=O)COC(=O)Cc1ccc(OC(=O)c2ccc(NC(=N)N)cc2)cc1 [Camostat mesylate] |  | - | - | did not inhibit |
